Test results as given in patent US11401254B2, “Substituted thiophenecarboxamides and analogues as antibacterials agents” (Bayer Aktiengesellschaft, priority 2018, dated 2022).

What was measured:
[1] = test system: Xanthomonas campestris pv. campestris; assay: In vivo preventive test on Xanthomonas campestris pv. campestris (black rot on cabbage); settings: Example C comparative table; same conditions as described in Example B; concentration not given
Method: Example B: In Vivo Preventive Test on Xanthomonas campestris pv. Campestris (Black Rot on Cabbage)
The tested compounds were prepared by homogenization in a mixture of acetone/Dimethyl sulfoxide/Tween®, and then diluted with water to obtain the desired concentration.
The young plants of cabbage were treated by spraying the compound prepared as described above. Control plants were treated only with an aqueous solution of acetone/Dimethyl sulfoxide/Tween®.
After 72 hours, the plants were contaminated by spraying the leaves with an aqueous bacteria suspension of Xanthomonas campestris pv. campestris. The contaminated cabbage plants were incubated for 8 or 10 days at 27° C. at 95% relative humidity.
The test was evaluated 8 or 10 days after the inoculation. 0% means an efficacy which corresponds to that of the control plants while an efficacy of 100% means that no disease was observed.
Compounds CMP3, CMP4, CMP5 and CMP6 were tested in an in vivo preventive test on Xanthomonas campestris pv. campestris (black rot on cabbage) in the same conditions as described in Example B.

[2] = test system: Xanthomonas campestris pv. campestris; assay: Xanthomonas campestris pv. campestris in vitro cell test (bacteria growth in liquid culture); type: cell-based; settings: 20 ppm of tested compound; 24 h of incubation
Method: Example A: Xanthomonas Campestris pv. Campestris In Vitro Cell Test
Culture medium: LB broth medium (Luria Broth Miller) Sigma
Inoculum: bacteria suspension
Compounds to be tested were solubilized in DMSO and the solution used to prepare the required range of concentrations. The final concentration of DMSO used in the assay was ≤1%.
Inoculum was prepared from a pre-culture of bacteria grown in liquid medium and diluted to the desired optical density (OD).
Compounds were evaluated for their ability to inhibit bacteria growth in liquid culture assay. The compounds were added in the desired concentrations to culture medium containing the bacteria suspension. After 24 h of incubation, the efficacy of compounds was determined by spectrometric measurement of bacteria growth. Inhibition was determined by comparing the absorbance values in wells containing the compounds with the absorbance in control wells without compounds.

[3] = Log P by HPLC on reversed phase columns (EEC directive 79/831 Annex V.A8); type: physicochemical; settings: for chromatographic logP: reversed phase HPLC columns
Method: In the above tables, measurement of Log P values was performed according to EEC directive 79/831 Annex V.A8 by HPLC (High Performance Liquid Chromatography) on reversed phase columns with the following methods: • ^[a]
If more than one Log P value is available within the same method, all the values are given and separated by “+”.
Calibration was done with straight-chain alkan2-ones (with 3 to 16 carbon atoms) with known Log P values (measurement of Log P values using retention times with linear interpolation between successive alkanones). Lambda-max-values were determined using UV-spectra from 200 nm to 400 nm and the peak values of the chromatographic signals.

[4] = method [a]: LC-UV, acidic range, 0.1% formic acid in water and acetonitrile as eluent

SMILES	Efficacy (%) [1] [%]	direct activity (inhibition of bacteria growth) [2]	chromatographic logP [3, 4]	chromatographic logP ([3]; value given in preparation example, method variant not stated)	LogP [3, 4]
CCOC(=O)[C@@H](NC(=O)c1sc(Br)c(Br)c1C)C(C)C (racemic) [I.04, ethyl N-[(4,5-dibromo-3-methyl-2-thienyl)carbonyl]-valinate]	>90	no direct activity	4.32	4.32	–
CCOC(=O)C(NC(=O)c1sc(Br)c(Br)c1Br)C(C)C (stereo not shown) [CMP3, reference compound]	33	–	–	–	–
CCOC(=O)CNC(=O)c1sc(Br)c(Br)c1Br [CMP4, reference compound]	0	–	–	–	–
CC(C)CC(NC(=O)c1cc(Br)c(Br)s1)C(=O)O (stereo not shown) [CMP6, reference compound]	15	–	–	–	–
CCOC(=O)CNC(=O)c1sc(Br)c(Br)c1C [I.02]	>80	no direct activity	–	–	3.02^[a]
Cc1c(C(=O)NC(C)C(=O)O)sc(Br)c1Br (stereo not shown) [I.79]	>70	–	–	–	2.39^[a]
Cc1c(C(=O)NC(CC(C)C)C(=O)O)sc(Br)c1Br (stereo not shown) [I.90]	>70	–	–	–	–
